pIC50: −log10 of the molar value. Where a name gives a salt, the structure may show the parent alone.
Tests used:
[1] = system: Locomotor activity in drug-naive rats; experiment: Locomotor activity in drug-naive rats; conditions: for Locomotor activity 0-60 min: drug-naive rats, recorded for 60 minutes; for Locomotor activity 30-60 min: drug-naive habituated rats, recorded between 30 and 60 minutes
[2] = system: DOPAC (3,4-dihydroxyphenylacetic acid) in the rat striatum; experiment: Increase of DOPAC in the rat striatum after systemic administration (in vivo neurochemistry); conditions: maximal effects limited to 350-400% of control, range covers 95% of fits, Inactive = inactive at 100 μmol/kg; for ED50 DOPAC*: s.c.; for ED50: sc
From the text: After the behavioural activity sessions, the rats were decapitated and their brains rapidly taken out and put on an ice-cold petri-dish. The limbic forebrain, the striatum, the frontal cortex and the remaining hemispheral parts of each rat were dissected and frozen. Each brain part was subsequently analyzed with respect to its content of monoamines and their metabolites.
The monoamine transmitter substances (NA (noradrenaline), DA (dopamine), 5-HT (serotonin)) as well as their amine (NM (normethanephrine), 3-MT (3-methoxytyramine)) and acid (DOPAC (3,4-dihydroxyphenylacetic acid), 5-HIAA (5-hydroxyindoleacetic acid), HVA (homovanillic acid)) metabolites are quantified in brain tissue homogenates by HPLC separations and electrochemical detection.
The analytical method is based on two chromatographic separations dedicated for amines or acids. Two chromatographic systems share a common auto injector with a 10-port valve and two sample loops for simultaneous injection on the two systems. Both systems are equipped with a reverse phase column (Luna C18(2), dp 3 μm, 50*2 mm i.d., Phenomenex) and electrochemical detection is accomplished at two potentials on glassy carbon electrodes (MF-1000, Bioanalytical Systems, Inc.). Via a T-connection the column effluent is passed to the detection cell or to waste. This is accomplished by two solenoid valves, which block either the waste or detector outlet. By not letting the chromatographic front reach the detector, better detection conditions are achieved. The aqueous mobile phase (0.4 ml/min) for the acid system contains Citric Acid 14 mM, Sodium Citrate 10 mM, MeOH 15% (v/v) and EDTA 0.1 mM. Detection potentials relative to Ag/AgCl reference is 0.45 and 0.60V. The aqueous ion pairing mobile phase (0.5 ml/min) for the amine system contains Citric Acid 5 mM, Sodium Citrate 10 mM, MeOH 9% (v/v), MeCN 10.5% (v/v), Decane Sulfonic Acid 0.45 mM, and EDTA 0.1 mM. Detection potentials relative to Ag/AgCl reference is 0.45 and 0.65V.
ED50 values for the increase of DOPAC in striatum are calculated by curve fitting. For most compounds, the evaluation is based on 20 animals over the dose range 0, 3.7, 11, 33 and 100 μmol/kg s.c. in one single experiment. The DOPAC levels are normalised to control and fitted by least square minimization to the function “End-(End-Control)/(1+(dose/ED50)^Slope)”. The four parameters are fitted with the restrictions: ED50>0, 0.5<Slope<3, 350<End<400 or End=200% of control (see table 1). To estimate confidence levels for the parameters, the fit is repeated 100 times with a random evenly distributed squared weight (0 to 1) for every measurement value. Presented ED50-ranges cover 95% of these values.

[3] = molecular target: hERG ion channel (Homo sapiens, UniProt Q12809); experiment: Rb efflux through the hERG ion channel; type: cell-based; conditions: Rb efflux method
From the text: The substances according to the present invention display a low potency at inhibiting the hERG channel, as measured by IC50 in a Rb+ efflux assay (Development and evaluation of high throughput functional assay methods for hERG potassium channel. Tang W, Kang 1, Wu X, Rampe D, Wang L, Shen H, Li Z, Dunnington D, Garyantes T. J Biomol Screen. 2001 October; 6(5):325-31), indicating a low risk for QT interval prolongation and arrhythmia in man.

Sequence of hERG ion channel (Q12809 whole entry): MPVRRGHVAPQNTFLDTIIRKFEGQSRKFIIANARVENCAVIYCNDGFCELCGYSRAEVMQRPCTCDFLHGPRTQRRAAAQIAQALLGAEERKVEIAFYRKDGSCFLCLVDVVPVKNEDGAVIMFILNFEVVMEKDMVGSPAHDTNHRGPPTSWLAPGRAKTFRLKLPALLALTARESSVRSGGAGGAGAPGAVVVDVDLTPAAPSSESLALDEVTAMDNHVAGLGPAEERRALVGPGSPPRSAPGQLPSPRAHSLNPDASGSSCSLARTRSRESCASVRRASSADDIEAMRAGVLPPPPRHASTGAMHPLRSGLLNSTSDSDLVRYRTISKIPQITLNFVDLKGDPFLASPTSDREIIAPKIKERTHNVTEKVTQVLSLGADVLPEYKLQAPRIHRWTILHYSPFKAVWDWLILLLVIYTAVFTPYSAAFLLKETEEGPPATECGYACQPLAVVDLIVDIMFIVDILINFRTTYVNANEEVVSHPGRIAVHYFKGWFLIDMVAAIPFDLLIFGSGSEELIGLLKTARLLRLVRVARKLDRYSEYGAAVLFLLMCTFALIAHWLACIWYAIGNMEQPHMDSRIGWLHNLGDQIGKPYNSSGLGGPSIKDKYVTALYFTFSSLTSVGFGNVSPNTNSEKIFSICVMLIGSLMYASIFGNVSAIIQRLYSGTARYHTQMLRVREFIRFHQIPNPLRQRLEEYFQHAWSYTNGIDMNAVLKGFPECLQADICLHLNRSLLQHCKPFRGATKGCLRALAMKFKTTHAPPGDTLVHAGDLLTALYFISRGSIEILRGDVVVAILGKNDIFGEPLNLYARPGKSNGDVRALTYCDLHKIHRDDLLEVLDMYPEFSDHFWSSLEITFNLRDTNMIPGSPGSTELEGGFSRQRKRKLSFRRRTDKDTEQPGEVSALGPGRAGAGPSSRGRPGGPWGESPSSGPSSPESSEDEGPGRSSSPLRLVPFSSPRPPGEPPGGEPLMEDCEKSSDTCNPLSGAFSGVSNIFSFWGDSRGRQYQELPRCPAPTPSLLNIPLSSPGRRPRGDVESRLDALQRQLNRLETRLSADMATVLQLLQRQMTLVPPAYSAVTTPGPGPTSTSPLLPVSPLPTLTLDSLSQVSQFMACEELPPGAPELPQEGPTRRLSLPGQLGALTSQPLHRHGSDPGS

CCCN1CCC(O)(c2cccc(Cl)c2Cl)CC1 [drawing 35]
Locomotor activity 0-60 min ([1]; 11 μmol/kg): 8897 ± 801 counts/60 min ± SEM
Locomotor activity 0-60 min ([1]; 33 μmol/kg): 9739 ± 2025 counts/60 min ± SEM
Locomotor activity 0-60 min ([1]; 100 μmol/kg): 7499 ± 1620 counts/60 min ± SEM

CCCCN1CCC(O)(c2cccc(C(F)(F)F)c2F)CC1 (as salt: hydrochloric acid salt) [Example 5, 4-[2-FLUORO-3-(TRIFLUOROMETHYL)PHENYL]-1-BUTYLPIPERIDIN-4-OL]
melting point: 138 °C

CCCN1CCC(O)(c2cccc(C(F)(F)F)c2F)CC1 (as salt: hydrochloric acid salt) [Example 1, 4-[2-FLUORO-3-(TRIFLUOROMETHYL)PHENYL]-1-PROPYLPIPERIDIN-4-OL]
melting point: 175 to 177 °C

CCN1CCC(O)(c2cc(F)cc(C(F)(F)F)c2)CC1
ED50 DOPAC* [2]: Inactive***
ED50 DOPAC* ([2]; listed as comparative example 10): inactive

CCCN1CCC(O)(c2ccc(F)c(C(F)(F)F)c2)CC1 [drawing 40]
Locomotor activity 0-60 min ([1]; 11 μmol/kg): 6114 ± 1032 counts/60 min ± SEM
Locomotor activity 0-60 min ([1]; 33 μmol/kg): 5906 ± 1340 counts/60 min ± SEM
Locomotor activity 0-60 min ([1]; 100 μmol/kg): 5546 ± 441 counts/60 min ± SEM

CCN1CCC(O)(c2cccc(C(F)(F)F)c2F)CC1 [drawing 26]
ED50 [2]: 65 µmol/kg
pIC50 [3]: 3.37

COCCN1CCC(O)(c2ccc(Cl)c(C(F)(F)F)c2)CC1 [drawing 36]
Locomotor activity 0-60 min ([1]; 11 μmol/kg): 7945 ± 1230 counts/60 min ± SEM
Locomotor activity 0-60 min ([1]; 33 μmol/kg): 5041 ± 2022 counts/60 min ± SEM
Locomotor activity 0-60 min ([1]; 100 μmol/kg): 4493 ± 1081 counts/60 min ± SEM

CCCCN1CCC(O)(c2cccc(C(F)(F)F)c2F)CC1 [drawing 28]
ED50 [2]: 13 µmol/kg
pIC50 [3]: 4.16

COCCN1CCC(O)(c2cccc(C(F)(F)F)c2F)CC1 (as salt: hydrochloric acid salt) [Example 4, 4-[2-FLUORO-3-(TRIFLUOROMETHYL)PHENYL]-1-(2-M ETHOXYETHYL)PIPERIDIN-4-OL]
melting point: 159 to 160 °C

CCCN1CCC(O)(c2cccc(C(F)(F)F)c2OC)CC1
ED50 DOPAC* [2]: Inactive***

CCCCN1CCC(O)(c2ccc(C)c(C(F)(F)F)c2)CC1 [drawing 41]
Locomotor activity 30-60 min ([1]; 11 μmol/kg): 2092 ± 1437 counts/30 min ± SEM
Locomotor activity 30-60 min ([1]; 33 μmol/kg): 1337 ± 141 counts/30 min ± SEM
Locomotor activity 30-60 min ([1]; 100 μmol/kg): 1365 ± 460 counts/30 min ± SEM

COCCN1CCC(O)(c2ccc(Cl)c(C(F)(F)F)c2)CC1 [drawing 30]
ED50 [2]: 32 µmol/kg
pIC50 [3]: 4.17

COCCN1CCC(O)(c2cccc(Cl)c2Cl)CC1 (as salt: hydrochloric acid salt)
melting point: 135 to 137 °C

CCCN1CCC(O)(c2ccc(F)c(C(F)(F)F)c2)CC1 [drawing 29]
ED50 [2]: 76 µmol/kg
pIC50 [3]: 4.22

CCCN1CCC(c2cccc(Cl)c2Cl)CC1 [reference compound]
ED50 [2]: 41 µmol/kg
pIC50 [3]: 5.25

CCCCN1CCC(O)(c2cccc(S(C)(=O)=O)c2F)CC1
ED50 DOPAC* [2]: Inactive***

CCCCN1CCC(O)(c2ccc(C)c(C(F)(F)F)c2)CC1 (as salt: hydrochloric acid salt) [Example 9, 1-BUTYL-4-[4-METHYL-3-(TRIFLUOROMETHYL)-PHENYL]PIPERIDIN-4-OL]
melting point: 197 to 198 °C

CCCN1CCC(O)(c2ccc(F)c(C(F)(F)F)c2)CC1 [drawing 43]
Locomotor activity 30-60 min ([1]; 11 μmol/kg): 213 ± 180 counts/30 min ± SEM
Locomotor activity 30-60 min ([1]; 33 μmol/kg): 436 ± 246 counts/30 min ± SEM
Locomotor activity 30-60 min ([1]; 100 μmol/kg): 258 ± 134 counts/30 min ± SEM

CCCN1CCC(O)(c2cccc(C(F)(F)F)c2F)CC1 [drawing 37]
Locomotor activity 0-60 min ([1]; 11 μmol/kg): 11764 ± 3106 counts/60 min ± SEM
Locomotor activity 0-60 min ([1]; 33 μmol/kg): 7506 ± 905 counts/60 min ± SEM
Locomotor activity 0-60 min ([1]; 100 μmol/kg): 3698 ± 294 counts/60 min ± SEM

COCCN1CCC(O)(c2cccc(C(F)(F)F)c2F)CC1 [drawing 27]
ED50 [2]: 43 µmol/kg
pIC50 [3]: 3.46

COCCN1CCC(O)(c2cccc(C(F)(F)F)c2F)CC1 [drawing 38]
Locomotor activity 0-60 min ([1]; 11 μmol/kg): 6422 ± 1190 counts/60 min ± SEM
Locomotor activity 0-60 min ([1]; 33 μmol/kg): 6016 ± 1708 counts/60 min ± SEM
Locomotor activity 0-60 min ([1]; 100 μmol/kg): 4296 ± 847 counts/60 min ± SEM

CCCN1CCC(O)(c2ccc(F)c(C(F)(F)F)c2)CC1 (as salt: hydrochloric acid salt) [Example 8, 4-[4-FLUORO-3-(TRIFLUOROMETHYL)PHENYL]-1-PROPYLPIPERIDIN-4-OL]
melting point: 179 to 181 °C

CCCCN1CCC(O)(c2cccc(C(F)(F)F)c2F)CC1 [drawing 39]
Locomotor activity 0-60 min ([1]; 11 μmol/kg): 7668 ± 1716 counts/60 min ± SEM
Locomotor activity 0-60 min ([1]; 33 μmol/kg): 3213 ± 825 counts/60 min ± SEM
Locomotor activity 0-60 min ([1]; 100 μmol/kg): 1630 ± 302 counts/60 min ± SEM

CCCN1CCC(c2cccc(C(F)(F)F)c2)CC1
ED50 [2]: 84 µmol/kg

COCCN1CCC(O)(c2cccc(Cl)c2Cl)CC1
Locomotor activity 0-60 min ([1]; 11 μmol/kg): 7229 ± 769 counts/60 min ± SEM
Locomotor activity 0-60 min ([1]; 33 μmol/kg): 7669 ± 1029 counts/60 min ± SEM
Locomotor activity 0-60 min ([1]; 100 μmol/kg): 7542 ± 844 counts/60 min ± SEM

CCCCN1CCC(O)(c2ccc(C)c(C(F)(F)F)c2)CC1 [drawing 31]
ED50 [2]: 56 µmol/kg

CCCCN1CCC(O)(c2ccc(C)c(C(F)(F)F)c2)CC1 [drawing 34]
Locomotor activity 0-60 min ([1]; 11 μmol/kg): 8188 ± 1055 counts/60 min ± SEM
Locomotor activity 0-60 min ([1]; 33 μmol/kg): 2879 ± 503 counts/60 min ± SEM
Locomotor activity 0-60 min ([1]; 100 μmol/kg): 2961 ± 928 counts/60 min ± SEM

CCN1CCC(c2ccc(F)c(C(F)(F)F)c2)CC1 [reference compound]
pIC50 [3]: 4.64

CCCN1CCC(O)(c2cccc(S(C)(=O)=O)c2)CC1 [drawing 22]
ED50 DOPAC* [2]: Inactive***

CCCN1CCC(O)(c2cccc(Cl)c2Cl)CC1 (as salt: hydrochloric acid salt)
melting point: 181 to 183 °C

CCN1CCC(O)(c2cccc(C(F)(F)F)c2F)CC1 [drawing 32]
Locomotor activity 0-60 min ([1]; 11 μmol/kg): 7481 ± 1266 counts/60 min ± SEM
Locomotor activity 0-60 min ([1]; 33 μmol/kg): 11085 ± 2020 counts/60 min ± SEM
Locomotor activity 0-60 min ([1]; 100 μmol/kg): 11288 ± 1339 counts/60 min ± SEM

CCN1CCC(O)(c2cccc(C(F)(F)F)c2F)CC1 (as salt: hydrochloric acid salt) [Example 3, 4-[2-FLUORO-3-(TRIFLUOROMETHYL)PHENYL]-1-ETHYLPIPERIDIN-4-OL]
melting point: 177 to 180 °C

COCCN1CCC(O)(c2ccc(Cl)c(C(F)(F)F)c2)CC1 (as salt: hydrochloric acid salt) [Example 2, 4-[4-CHLORO-3-(TRIFLUOROMETHYL)PHENYL]-1-(2-METHOXYETHYL)PIPERIDIN-4-OL]
melting point: 181 to 183 °C

CCCN1CCC(O)(c2cccc(C(F)(F)F)c2F)CC1 [drawing 42]
Locomotor activity 30-60 min ([1]; 11 μmol/kg): 3200 ± 1817 counts/30 min ± SEM
Locomotor activity 30-60 min ([1]; 33 μmol/kg): 1130 ± 344 (P = 0.06) counts/30 min ± SEM
Locomotor activity 30-60 min ([1]; 100 μmol/kg): 541 ± 145 counts/30 min ± SEM

— US7579474B2, “Substituted piperidines as modulators of dopamine neurotransmission” (NSAB, Filial AF Neurosearch AB, Sverige, priority 2004, dated 2009)
